# ChEMBL document CHEMBL1201862, “PubChem BioAssay data set” (2004)
#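 96-well plates; 48 h exposure; 5 concentrations. Endpoints by linear interpolation between flanking doses. Not reached: highest tested concentration assigned. Abbreviation: GI50, concentration required for 50% inhibition of growth.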 Active and inactive are the calls of the source. No stated cut-off is given here; in the data, active = GI50 up to about 1.1 µM and inactive = higher.
# Assays:
# Assay in all cases: inhibition of tumour cell growth, NCI panel, 48 h
# ACHN = tested on: ACHN
# HCC 2998 = tested on: HCC 2998
# HL-60 = tested on: HL-60
# HOP-62 = tested on: HOP-62
# MCF7 = tested on: MCF7
# MDA-MB-435 = tested on: MDA-MB-435
# Malme-3M = tested on: Malme-3M
# NCI-H226 = tested on: NCI-H226
# NCI-H522 = tested on: NCI-H522
# OVCAR-3 = tested on: OVCAR-3
# OVCAR-4 = tested on: OVCAR-4
# RXF 393 = tested on: RXF 393
# SF-295 = tested on: SF-295
# SK-MEL-28 = tested on: SK-MEL-28
# SK-MEL-2 = tested on: SK-MEL-2
# SR = tested on: SR
# T47D = tested on: T47D
# U-251 = tested on: U-251
# UACC-62 = tested on: UACC-62
# SF-539 = tested on: SF-539
Compound,GI50 (ACHN),GI50 (HCC 2998),GI50 (HL-60),GI50 (HOP-62),GI50 (MCF7),GI50 (MDA-MB-435),GI50 (Malme-3M),GI50 (NCI-H226),GI50 (NCI-H522),GI50 (OVCAR-3),GI50 (OVCAR-4),GI50 (RXF 393),GI50 (SF-295),GI50 (SK-MEL-28),GI50 (SK-MEL-2),GI50 (SR),GI50 (T47D),GI50 (U-251),GI50 (UACC-62),GI50 (SF-539)
C=CC/N=C(\S)Nc1sc2c(c1C(=O)OCC)CC(C)CC2 (configuration not stated),22.9 µM (inactive),18.5 µM (inactive),0.849 µM (active),23.1 µM (inactive),20.2 µM (inactive),32 µM (inactive),21.3 µM (inactive),21.6 µM (inactive),20.6 µM (inactive),20.3 µM (inactive),35.2 µM (inactive),26.5 µM (inactive),21.1 µM (inactive),33.1 µM (inactive),21.2 µM (inactive),18.9 µM (inactive),21.4 µM (inactive),32.6 µM (inactive),20.6 µM (inactive),–
CC1(C)N=c2c(ncn2CCO)=C(C(N)=O)N1,> 100 µM (inactive),> 100 µM (inactive),> 100 µM (inactive),> 100 µM (inactive),> 100 µM (inactive),> 100 µM (inactive),> 100 µM (inactive),> 100 µM (inactive),> 100 µM (inactive),> 100 µM (inactive),> 100 µM (inactive),> 100 µM (inactive),> 100 µM (inactive),> 100 µM (inactive),–,> 100 µM (inactive),> 100 µM (inactive),> 100 µM (inactive),> 100 µM (inactive),> 100 µM (inactive)
C#CCOC(=O)[C@@H](C)c1ccc2cc(OC)ccc2c1,> 100 µM (inactive),–,15.1 µM (inactive),> 100 µM (inactive),63.8 µM (inactive),66.4 µM (inactive),–,> 100 µM (inactive),40.2 µM (inactive),–,96.8 µM (inactive),86.5 µM (inactive),> 100 µM (inactive),–,> 100 µM (inactive),17.3 µM (inactive),> 100 µM (inactive),> 100 µM (inactive),> 100 µM (inactive),76.9 µM (inactive)
CC(C)=CCC(O)C1=CC(=O)c2c(O)ccc(O)c2C1=O (configuration not stated),0.525 µM (active),1.74 µM (inactive),0.0349 µM (active),1.82 µM (inactive),0.557 µM (active),1.31 µM (inactive),–,1.01 µM (active),0.258 µM (active),1.14 µM (inactive),1.76 µM (inactive),0.745 µM (active),2.78 µM (inactive),1.48 µM (inactive),1.95 µM (inactive),0.15 µM (active),0.39 µM (active),2.1 µM (inactive),1.58 µM (inactive),1.61 µM (inactive)
CCOC(=O)/C=C/C1OC(C)(C)OC1/C=C/C(=O)OCC (configuration not stated),38.4 µM (inactive),23.2 µM (inactive),–,23.7 µM (inactive),30.8 µM (inactive),29 µM (inactive),39.8 µM (inactive),> 100 µM (inactive),22.5 µM (inactive),–,32.4 µM (inactive),9.91 µM (inactive),48.6 µM (inactive),28.4 µM (inactive),81.5 µM (inactive),15.1 µM (inactive),29.4 µM (inactive),41.3 µM (inactive),39.9 µM (inactive),40.2 µM (inactive)
CC(=C(C(N)=O)C(N)=O)C1C=C(c2cccs2)CC(c2ccc(Cl)cc2)=C1O (configuration not stated),52.5 µM (inactive),34 µM (inactive),9.59 µM (inactive),> 100 µM (inactive),8.95 µM (inactive),42.2 µM (inactive),–,73.6 µM (inactive),30.3 µM (inactive),22.3 µM (inactive),5.51 µM (inactive),> 100 µM (inactive),82.8 µM (inactive),> 100 µM (inactive),> 100 µM (inactive),31 µM (inactive),9.84 µM (inactive),35.6 µM (inactive),25.1 µM (inactive),–
O=C1CSC(c2ccccc2O)N1c1ccc2c(c1)Oc1c(Cl)c3c(c(Cl)c1=N2)Oc1cc(N2C(=O)CSC2c2ccccc2O)ccc1N=3 (configuration not stated),24.5 µM (inactive),53.3 µM (inactive),0.664 µM (active),28.6 µM (inactive),34 µM (inactive),29.1 µM (inactive),–,73.6 µM (inactive),20.6 µM (inactive),33.3 µM (inactive),64.7 µM (inactive),17.1 µM (inactive),42 µM (inactive),81.5 µM (inactive),47.6 µM (inactive),0.873 µM (active),37.4 µM (inactive),24.9 µM (inactive),–,37.9 µM (inactive)
